“Also recorded” adds a separate entry of the source.
Assays:
3′ UTR of the TNFα gene = test: cell-based luciferase reporter assay, 5B cell line (luciferase gene with entire 3′ UTR of the TNFα gene); parameters: species or system mouse; details: for Luciferase 5B (% of DMSO control) / Luciferase 5B/3B (% of DMSO control 5B)/(% of DMSO control 3B): 10 μM compound; for Luciferase 5B (% of DMSO control): 1 h, then LPS, 5B cell line; for Luciferase 5B/3B (% of DMSO control 5B)/(% of DMSO control 3B): ratio of 5B to control 3B cell line
Description: The candidate compounds were tested in a high-throughput, cell-based luciferase reporter assay. For this assay, a commercially available mouse macrophage Raw 264.7 cell line was stably transfected with a construct containing the CMV promoter operably linked to the luciferase gene which was modified using standard molecular biology techniques to contain the entire 3′ UTR of the TNFα gene. This 3′ UTR is important for the stability and translation of TNFα in cells. To control for effects of candidate compounds that are not specific for TNFα, a control cell line, called “3B,” was generated by stably transfecting the 264.7 cell line with a commercially available construct containing the luciferase gene (without the addition of the heterologous 3′ UTR of the TNFα gene) under the regulation of the CMV promoter.
[…] Then, lipopolysaccharide (LPS) was added to stimulate TNFα secretion. Luciferase activity was measured by determining the luminescence intensity due to the reaction of lucifern, ATP, Mg^2+, and molecular O2 (see, for example, Ausubel et al., supra). The luciferase activity in a cell incubated with a candidate compound was reported as a percentage of the luciferase activity for the corresponding cell incubated with DMSO vehicle only.
After correction for any effect caused by the administration of the DMSO only vehicle control, the effect of a candidate compound on luciferase activity in the 3B control cell line represents the global effect of the compound on any step required for expression or activity of luciferase protein, such as luciferase gene transcription, mRNA processing, mRNA stability, translation, protein stability, or enzymatic activity. […] In this case, the luciferase activity in the 5B cell line treated with the DMSO vehicle control is similar to the luciferase activity in the control 3B cell line treated with the candidate compound. Thus, the response of the 5B cell line (as a percent of the DMSO control) and the ratio of the luciferase activity in the 5B cell line (as a percent of the DMSO control) to the luciferase activity in the control 3B cell line (as a percent of the DMSO control) are similar. In desirable embodiments, the response of the 5B cell line and the 5B/3B ratio differ by less than 50, 40, 30, 20, 10, or 5%.

TNFα = test: ELISA of TNFα secreted into the media after LPS; assay type: cell-based; details: for TNFα Secretion (% of DMSO control): 10 μM compound, 1 h, then LPS; for effect on amount of secreted TNFα (direct TNFα secretion assay), in words: after LPS stimulation
Description: The ability of candidate compounds to reduce the amount of secreted TNFα was also directly tested using an ELISA assay. […] A standard ELISA analysis was used to measure the amount of TNFα secreted into the media (see, for example, Ausubel et al., supra). The effect of a candidate compound on TNFα secretion in this assay is reported in the following tables as a percentage of the amount of TNFα secreted by a control cell that was administered a DMSO vehicle control only.

Compound	Luciferase 5B (% of DMSO control) (3′ UTR of the TNFα gene)	Luciferase 5B/3B (% of DMSO control 5B)/(% of DMSO control 3B) (3′ UTR of the TNFα gene)	TNFα Secretion (% of DMSO control) (TNFα)	effect on amount of secreted TNFα (direct TNFα secretion assay), in words (TNFα)	effect on luciferase activity in the 5B cell line (luciferase assay), in words (3′ UTR of the TNFα gene)
CC(C)CC(NC(=O)c1ccc(C(=NNC(=N)N)c2ccccc2)cc1)C(=O)N1CCN(C(=O)C(Cc2ccccc2)NC(=O)c2ccccc2)CC1 (mixture of isomers) [MES 10231]	34 % of DMSO control	33 (% of DMSO control 5B)/(% of D	49 % of DMSO control		
CC(=NNC(=N)N)c1ccc(C(=O)NC(Cc2ccccc2)C(=O)N2CCN(C(=O)C(CC(C)C)NC(=O)c3cccc(C(C)=NNC(=N)N)c3)CC2)cc1 (mixture of isomers) [MES 11452]	13 % of DMSO control	50 (% of DMSO control 5B)/(% of D	88 % of DMSO control	decreased the amount of secreted TNFα	
CC(=NNC(=N)N)c1cccc(C(=O)NC(CC(C)C)C(=O)N2CCN(C(=O)C(Cc3ccc(Cl)cc3)NC(=O)c3ccc(C(=NNC(=N)N)c4ccccc4)cc3)CC2)c1 (mixture of isomers) [MES 10258]	43 % of DMSO control	39 (% of DMSO control 5B)/(% of DMSO control 3B)	42 % of DMSO control		
CCCCC(NC(=O)c1cccc(C(C)=NNC(=N)N)c1)C(=O)N1CCN(C(=O)C(Cc2ccccc2)NC(=O)c2ccc(C(=NNC(=N)N)c3ccccc3)cc2)CC1 (mixture of isomers) [MES 10185]	31 % of DMSO control	35 (% of DMSO control 5B)/(% of DMSO control 3B)	37 % of DMSO control		inhibited TNFα secretion
(E,E)-Bisguanylhydrazone of 1-[(S)-N-(4-benzoylbenzoyl)-2-amino-3-phenylpropanoyl]-4-[(2S)-N-(4-benzoylbenzoyl)-2-amino-4-methylpentanoyl]-1,4-piperazine bis trifluoroacetate [MES 10164]	29 % of DMSO control	31 (% of DMSO control 5B)/(% of DMSO control 3B)	45 % of DMSO control	inhibited TNFα secretion	inhibited TNFα secretion
CC(=NN=C(N)N)c1cccc(C(=O)NC(CC(C)C)C(=O)NCCCNC(=O)C(Cc2ccccc2)NC(=O)c2ccc(C(=NN=C(N)N)c3ccccc3)cc2)c1 (mixture of isomers) [MES 11562]	44 % of DMSO control	38 (% of DMSO control 5B)/(% of D	50 % of DMSO control	decreased the amount of secreted TNFα	decrease TNFα secretion
(Z,Z)-Bisguanylhydrazone of 1-[(S)-N-(4-benzoylbenzoyl)-2-amino-3-phenylpropanoyl]-4-[(2S)-N-(4-benzoylbenzoyl)-2-amino-4-methylpentanoyl]-1,4-piperazine bis trifluoroacetate [MES 10165]	37 % of DMSO control	63 (% of DMSO control 5B)/(% of DMSO control 3B)	36 % of DMSO control	inhibited TNFα secretion	inhibited TNFα secretion
CC(=NNC(=N)N)c1cccc(C(=O)NC(CC(C)C)C(=O)N2CCN(C(=O)C(Cc3ccc(-c4ccccc4)cc3)NC(=O)c3ccc(C(=NNC(=N)N)c4ccccc4)cc3)CC2)c1 (mixture of isomers) [MES 10259]	22 % of DMSO control	38 (% of DMSO control 5B)/(% of DMSO control 3B)	36 % of DMSO control		
C/C(=N\NC(=N)N)c1cccc(C(=O)N[C@@H](CC(C)C)C(=O)N2CCN(C(=O)[C@H](Cc3ccccc3)NCc3ccc(I)cc3)CC2)c1 [MES 10242]	53 % of DMSO control	50 (% of DMSO control 5B)/(% of D	67 % of DMSO control		
(1-Z,4-E)-Bisguanylhydrazone of 1-[(S)-N-(4-benzoylbenzoyl)-2-amino-3-phenylpropanoyl]-4-[(2S)-N-(3-acetylbenzoyl)-2-amino-4-methylpentanoyl]-piperazine bis trifluoroacetate [MES 10172]	38 % of DMSO control	49 (% of DMSO control 5B)/(% of DMSO control 3B)	60 % of DMSO control		
CC(=NNC(=N)N)c1cccc(C(=O)N[C@@H](CC(C)C)C(=O)N2CCN(C(=O)[C@H](Cc3ccccc3)NC(=O)c3ccc(C(=O)c4ccccc4)cc3)CC2)c1.O=C(O)C(F)(F)F [MES 10173, (4-E)-Guanylhydrazone of 1-[(S)-N-(4-benzoylbenzoyl)-2-amino-3-phenylpropanoyl]-4-[(2S)-N-(3-acetylbenzoyl)-2-amino-4-methylpentanoyl]-piperazine trifluoroaceteate]	26 % of DMSO control		42 % of DMSO control		
CC(C)CC(NC(=O)c1ccc(C(=NNC(=N)N)c2ccccc2)cc1)C(=O)N1CCN(C(=O)C(CC2CCCCC2)NC(=O)c2ccc(C(=NNC(=N)N)c3ccccc3)cc2)CC1 (mixture of isomers) [MES 10238]	32 % of DMSO control	78 (% of DMSO control 5B)/(% of DMSO control 3B)	23 % of DMSO control		
CC(=NN=C(N)N)c1cccc(C(=O)NC(Cc2ccccc2)C(=O)N2CCN(C(=O)C(CC(C)C)NC(=O)c3ccc(C(=NN=C(N)N)c4ccccc4)cc3)CC2)c1 (mixture of isomers) [MES 11405]	39 % of DMSO control	49 (% of DMSO control 5B)/(% of D	55 % of DMSO control	decreased the amount of secreted TNFα	decrease TNFα secretion
CC(C)CC(NC(=O)c1ccc(C(=NN=C(N)N)c2ccccc2)cc1)C(=O)NCCCNC(=O)C(Cc1ccccc1)NC(=O)c1ccc(C(=NN=C(N)N)c2ccccc2)cc1 (mixture of isomers) [MES 11561]	24 % of DMSO control	26 (% of DMSO control 5B)/(% of D	41 % of DMSO control	decreased the amount of secreted TNFα	decrease TNFα secretion; also recorded: greatest inhibition
CC(C)CC(NC(=O)c1ccc(C(=NNC(=N)N)c2ccccc2)cc1)C(=O)N1CCN(C(=O)C(Cc2ccc(-c3ccccc3)cc2)NC(=O)c2ccc(C(=NNC(=N)N)c3ccccc3)cc2)CC1 (mixture of isomers) [MES 10193]	23 % of DMSO control	38 (% of DMSO control 5B)/(% of DMSO control 3B)	20 % of DMSO control		
CC(C)C[C@H](NC(=O)c1ccccc1)C(=O)N1CCN(C(=O)[C@H](Cc2ccccc2)NC(=O)c2ccc(/C(=N\N=C(N)N)c3ccccc3)cc2)CC1.O=C(O)C(F)(F)F [MES 10250, (Z)-Guanylhydrazone of 1-[(S)-N-(4-benzoylbenzoyl)-2-amino-3-phenylpropanoyl]-4-[(2S)-N-(benzoyl)-2-amino-4-methylpentanoyl]-1,4-piperazine trifluoroacetate]	37 % of DMSO control	49 (% of DMSO control 5B)/(% of D	40 % of DMSO control		
(E,E)-Bisguanylhydrazone of 1-[(S)-N-(4-benzoylbenzoyl)-2-amino-3-phenylpropanoyl]-4-[(2S)-N-(3-acetylbenzoyl)-2-amino-4-methylpentanoyl]-1,4-piperazine bis trifluoroacetate [MES 10171]	20 % of DMSO control	24 (% of DMSO control 5B)/(% of DMSO control 3B)	57 % of DMSO control		
